Source: patent US8809389B2, “Substituted alkynyl phenoxy compounds as new synergists in pesticidal compositions” (Endura S.p.A., priority 2009, dated 2014)

Experiments:
Myzus persicae = assay: Topical application bioassay on aphid clones: imidacloprid with or without synergist pre-treatment; settings: aphid clone 5191A
Protocol: Aphid clones were reared on Chinese cabbage (Brassica rapa L. var. Pekinensis c.v Wong Bok) (Brassicaceae) leaves held in small plastic box-cages maintained at 18±2° C. with a 16:8 h light:dark photoperiod (Blackman R L, Variation in the photoperiodic response within natural populations of Myzus persicae (Sulzer). Bull Ent Res 60: 533-546 (1971)).
Clone 4106A is a laboratory insecticide-susceptible standard2 . […] Both aphid clones have been established from single parthenogenetic M. persicae females (Foster S P, Denholm I, Thompson R, Poppy G M, Powell W, Reduced response of insecticide-resistant aphids and attraction of parasitoids to alarm pheromone; a potential fitness trade-off. Bull Ent Res 95: 37-46 (2005)).
12.1.2 Topical Application Bioassay with 5191A Aphid Clone Young apterae were transferred to the abaxial surface of Chinese cabbage leaf discs (10 adults per leaf disc, at least 3 replicates per concentration) held on 1% agar in plastic containers (4 cm in diameter). The upper edge of each container was coated with Fluon (Whitford Plastics, UK) to prevent subsequent aphid escape from the leaf surface. After allowing 2 h for the aphids to settle, each was dosed with 0.25 μl of either 1 g L^−1 Compound of Example 3 dissolved in acetone or acetone only. After 4 h aphids were further treated with 0.25 μl imidacloprid in acetone (96% AR) using a
Burkard microapplicator (Burkard, Rickmansworth, UK). Controls were treated with acetone only. Treated aphids were stored at 18±2° C. and 16 h light: 8 h dark photoperiod. All bioassays were scored at the endpoint of 72 h after treatment. Adults incapable of co-ordinated movement (after gentle touching with a paint brush if necessary) were scored as dead. All bioassays were completed in triplicate.

[1] = test system: pollen beetle, Meligethes aeneus; assay: Discriminating dose bioassay: α-cypermethrin in mixture with synergist; format: in vivo; settings: for % Mortality: 24 h
Protocol: Two pyrethroid resistant populations originating from two different areas in Poland ‘Rogalin'and lebork’ were collected in July 2008. A putative susceptible population, UK population, was also collected in July 2008 in Hertfordshire, UK. All populations were collected from oilseed rape contained adults only and were kept at room temperature before assays were performed.
Bioassays incorporating the compounds (Compound of Example 2 and Compound of Example 3) dissolved in acetone, were carried out using a diagnostic concentration of α-cypermethrin derived from the above full dose response bioassays in a mixture of 0.01 g L^−1 of the compounds. The concentration of α-cypermethrin used for the discriminating dose bioassays was 0.3 ppm α-cypermethrin for the two polish populations, Rogalin and Lebork and 0.03 ppm α-cypermethrin for UK population. Vials treated with the compounds only, dissolved in acetone and acetone only were used as controls. Ten to 15 replicates were used for each treatment depending on insect numbers within the population. Compounds concentrations chosen conferred no mortality in preliminary bioassays.
Treated vials including the pollen beetles were stored in constant environment facilities at 18±2° C. and 16L: 8D. All bioassays were scored at an endpoint of 24 h after exposure to the insecticide. Insects incapable of coordinated movement (after gentle touching with a pencil brush if necessary) were scored as dead.

For `CC#CCOc1cc2c(cc1CCC)OCO2` [Example 3, 5-(but-2-ynyloxy)-6-propyl-benzo[1.3]dioxole], the “LC50 of imidacloprid after pre-treatment with the synergist” value (Myzus persicae; FE4(R3), 0.25 μl of 1 g L^−1 synergist 4 h before imidacloprid, scored 72 h) was 1.25 ppm, the “SF, synergism factor (LC50 unsynergised / LC50 synergised)” value (Myzus persicae; imidacloprid plus 1 g L^−1 synergist pre-treatment) was 72.4 and the “% Mortality” value ([1]; Lebork, 0.3 ppm α-cypermethrin in mixture with 0.01 g L^−1 synergist) was 86.53%. For the same compound, the “Mortality” value ([1]; Rogalin and Lebork, 0.3 ppm α-cypermethrin in mixture with 0.01 g L^−1 synergist) was “around 85%”, the “% Mortality” value ([1]; Rogalin, 0.3 ppm α-cypermethrin in mixture with 0.01 g L^−1 synergist) was 97.06% and the “% Mortality” value ([1]; UK population, 0.03 ppm α-cypermethrin in mixture with 0.01 g L^−1 synergist) was 68.78%. For the same compound, the “Mortality with the compound only” value ([1]; synergist only, without α-cypermethrin (data not shown)) was “No mortality”.
